Key:
[1] = test system: distal and proximal part of the colon; test: Contraction of isolated colon segments in organ bath; set-up: species or system Male Wistar rats; conditions: for Tension of tonic contractions (FIG. 5): increasing concentrations up to 100 mM, effect higher in distal than proximal colon
From the text: Male Wistar rats (CKP/Harlan, Wageningen/Horst, Netherlands) were housed under conditions of controlled temperature and light cycle and were provided free access to food pellets and water. Animals were anaesthetised by a mixture of N2O, O2 and isofluran, the abdomen was opened and the colon was removed immediately. The tissue was placed in Krebs-Henseleit buffer pH 7.4 (composition in mM: 118.0 NaCl, 4.75 KCl, 1.18 MgSO4, 2.5 CaCl2, 10 glucose, 1.17 KH2PO4 and 24.9 NaHCO3).
The colon was cut into a distal and a proximal portion and was rinsed with Krebs-Henseleit buffer while gently squeezing out faecal content. To approximate in vivo conditions as closely as possible, 1 cm fully intact segments were attached longitudinally to an isometric force transducer (F30 type 372, HSE, Germany) in 20 ml water-jacketed (37° C.) organ baths (Schuler, HSE, Germany) containing Krebs-Henseleit buffer gassed continuously with 95% O2-5% CO2. The segments were gradually stretched to a resting tension of 1 g and allowed to equilibrate for 45 minutes with intermittent washings. The tensions of the segments in rest and in response to different stimuli were amplified by a transducer amplifier module (HSE, Germany) and recorded on a multi-pen recorder (Rikadenki, HSE, Germany).
The segments were incubated with 40 mM KCl for 5 minutes and the contractile responses were measured. KCl was washed out by three consecutive washes at 5 minutes intervals. The segments were then incubated with increasing concentrations up to 100 mM of acetate or sodium-L-lactate. The acid solutions were prepared freshly in distilled water. NaOH was added to acetate to obtain a neutral pH. At the end of the incubation with a fatty acid, 40 mM KCl was added to determine whether the contractile response to KCl was influenced by the fatty acid. Before a new incubation the segments were allowed to equilibrate for 45 minutes in fresh Krebs-Henseleit buffer with intermittent washings.
The experimental protocol consisted of two proximal and two distal sections of the colon. For data analysis (n=3), the contraction level induced by the stimuli was defined as the tension in g after 5 minutes incubation. Data obtained from identical segments (proximal or distal) were used to calculate a mean value and each segment served as its own control sample.

[2] = test system: muc-2 expression in a CCD18/T84 co-culture; test: muc-2 expression in CCD18/T84 co-culture; assay type: cell-based
Protocol: (§1) The effect of lactate and a SCFA mixture was analysed as described in Willemsen, L E M, Koetsier M A, van Deventer S J H, van Tol E A F (2003), Gut 52:1442-1447, with the following modifications: Lactate and a mixture of acetate/propionate/butyrate 90/5/5 was tested. For the mucus production experiments a co-culture of CCD18 and T84 cells was used, whereas for the PGE1 and PGE2 production experiments a monoculture of CCD18 cells was used.

[3] = test system: PGE1 and PGE2 response in CCD18 cells; test: Spontaneous PGE1 and PGE2 response in CCD18 cells; assay type: cell-based; conditions: n=7
Protocol: as §1

[4] = proximal part of the colon, 25 mM
[5] = proximal part of the colon, concentrations higher than 25 mM

SMILES | Number of spontaneous (phasic) contractions ([1]; distal part of the colon) | Tension of tonic contractions (FIG. 5) [1] | Number of spontaneous (phasic) contractions ([1]; proximal part of the colon) | Tonic contractions as a response to KCl [1, 4] | Tonic contractions as a response to KCl [1, 5] | Increase of muc-2 expression (FIG. 4a) ([2]; at 0.5, 1 and 4 mM, n=6) | MUC-2 expression, dose dependence (FIG. 4A) ([2]; co-culture of CCD18 and T84 cells) | Increase of PGE1 (FIG. 4b) ([3]; at 100 μM) | Increase of PGE2 (FIG. 4b) ([3]; at 250 μM, P<0.05)
C[C@H](O)C(=O)[O-].[Na+] [sodium-L-lactate] | no effects are observed | decrease the tension of tonic contractions | decrease | comparable in the presence or absence | significant relaxation | – | – | – | –
CC(=O)[O-].[Na+] [sodium acetate, reference compound] | no effects are observed | decrease the tension of tonic contractions | decrease | comparable in the presence or absence | significant relaxation | – | – | – | –
C[C@H](O)C(=O)O [L-lactate] | – | – | – | – | – | statistically significant | dose dependently induces MUC-2 expression | statistically significant | statistically significant
